Test results as given in patent US20100267561A1, “HERBICIDAL PYRIDAZINONE DERIVATIVES” (priority 2007, published 2010).
Where two headings read alike, the source gives them in different places.

Experiments:
Assay in all cases: Test B pre-/postemergence plant response
Type in all cases: in vivo
[1] = test system: green foxtail (Setaria viridis); settings: for pest or weed control at 31 g/ha: 31 g ai/ha; for pest or weed control at 62 g/ha: 62 g ai/ha, 100 complete control
In short: (§1)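 Seeds were sown and sprayed preemergence, while plants at 2 to 18 cm (1- to 4-leaf stage) got postemergence sprays. Compounds were formulated in a non-phytotoxic solvent mixture with surfactant. After 13 to 15 days in a greenhouse, injury was rated visually against untreated controls, 0 (no effect) to 100 (complete control).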

[2] = test system: lambsquarters (Chenopodium album); settings: for pest or weed control at 31 g/ha / pest or weed control at 62 g/ha: Chenopodium album, read-out: Plant response rating, Lambsquarters; for pest or weed control at 31 g/ha: 31 g ai/ha; for pest or weed control at 62 g/ha: 62 g ai/ha, 100 complete control
In short: as §1

[3] = test system: giant foxtail (Setaria faberii); settings: for pest or weed control at 31 g/ha: 31 g ai/ha; for pest or weed control at 62 g/ha: 62 g ai/ha, 100 complete control
In short: as §1

[4] = test system: velvetleaf (Abutilon theophrasti); settings: for pest or weed control at 31 g/ha / pest or weed control at 62 g/ha: Abutilon theophrasti, read-out: Plant response rating, Velvetleaf; for pest or weed control at 31 g/ha: 31 g ai/ha; for pest or weed control at 62 g/ha: 62 g ai/ha, 100 complete control
In short: as §1

[5] = test system: wheat (Triticum aestivum); settings: for plant injury at 31 g/ha / plant injury at 62 g/ha: Triticum aestivum, read-out: Plant response rating, Wheat; for plant injury at 31 g/ha: 31 g ai/ha; for plant injury at 62 g/ha: 62 g ai/ha, 100 complete control
In short: as §1

corn (Zea mays) = settings: for Corn plant response rating (crop injury, 0 = no effect, 100 = complete kill) at 31 g/ha: 31 g ai/ha; for Corn plant response rating (crop injury, 0 = no effect, 100 = complete kill) at 62 g/ha: 62 g ai/ha, 100 complete control
In short: as §1

[6] = test system: yellow nutsedge (Cyperus esculentus); settings: for pest or weed control at 31 g/ha / pest or weed control at 62 g/ha: Cyperus, read-out: Plant response rating, Nutsedge, Yellow; for pest or weed control at 31 g/ha: 31 g ai/ha; for pest or weed control at 62 g/ha: 62 g ai/ha, 100 complete control
In short: as §1

[7] = test system: cocklebur (Xanthium strumarium); settings: for pest or weed control at 31 g/ha: 31 g ai/ha; for pest or weed control at 62 g/ha: 62 g ai/ha, 100 complete control
In short: as §1

[8] = test system: goosegrass (Eleusine indica); settings: for pest or weed control at 31 g/ha / pest or weed control at 62 g/ha: Eleusine indica, read-out: Plant response rating, Goosegrass; for pest or weed control at 31 g/ha: 31 g ai/ha; for pest or weed control at 62 g/ha: 62 g ai/ha, 100 complete control
In short: as §1

[9] = test system: Russian thistle (Salsola iberica); settings: Preemergence
In short: as §1

[10] = test system: bermudagrass (Cynodon dactylon); settings: for pest or weed control at 31 g/ha: 31 g ai/ha; for pest or weed control at 62 g/ha: 62 g ai/ha, 100 complete control
In short: as §1

[11] = test system: woolly cupgrass (Eriochloa villosa); settings: for pest or weed control at 31 g/ha: 31 g ai/ha; for pest or weed control at 62 g/ha: 62 g ai/ha, 100 complete control
In short: as §1

soybean (Glycine max) = settings: for plant injury at 31 g/ha / plant injury at 62 g/ha: Glycine max, read-out: Plant response rating, Soybean; for plant injury at 31 g/ha: 31 g ai/ha; for plant injury at 62 g/ha: 62 g ai/ha, 100 complete control
In short: as §1

[12] = 8 g ai/ha, postemergence, 0-100 scale
[13] = Preemergence, 8 g ai/ha, scale 0 to 100 (0 no effect, 100 complete control)
[14] = Preemergence, 16 g ai/ha, scale 0 to 100
[15] = 16 g ai/ha, postemergence, 0-100 scale
[16] = post-emergence, Postemergence, scale 0 to 100
[17] = post-emergence, Postemergence, scale 0 to 100, 0 no effect
[18] = pre-emergence, Preemergence, scale 0 to 100 (0 no effect, 100 complete control)
[19] = pre-emergence, Preemergence, 0 to 100 scale, 0 no effect

Cc1cc(-c2ccc(Br)cc2)nn1-c1c(OC(=O)C2CC2)cnn(C(=O)C2CC2)c1=O [Compound 80, 5-[3-(4-bromophenyl)-5-methyl-1H-pyrazol-1-yl]-1-(cyclopropylcarbonyl)-1,6-dihydro-6-oxo-4-pyridazinyl cyclopropanecarboxylate]
Foxtail, Green plant response rating [1, 12]: 50
Foxtail, Green plant response rating [1, 13]: 0
Foxtail, Green plant response rating [1, 14]: 98
pest or weed control at 16 g/ha ([1]; Setaria viridis, post-emergence, Postemergence, 16 g ai/ha, scale 0 to 100, read-out: Plant response rating, Foxtail, Green): 60%
pest or weed control at 31 g/ha ([1]; Setaria viridis, post-emergence, Postemergence, scale 0 to 100, read-out: Plant response rating, Foxtail, Green): 100%
pest or weed control at 62 g/ha ([1]; Setaria viridis, post-emergence, Postemergence, scale 0 to 100, 0 no effect, read-out: Plant response rating, Foxtail, Green): 100%
pest or weed control at 31 g/ha ([1]; Setaria viridis, pre-emergence, Preemergence, scale 0 to 100 (0 no effect, 100 complete control), read-out: Plant response rating, Foxtail, Green): 100%
pest or weed control at 62 g/ha ([1]; Setaria viridis, pre-emergence, Preemergence, 0 to 100 scale, 0 no effect, read-out: Plant response rating, Foxtail, Green): 100%
Lambsquarters plant response rating [2, 12]: 0
Lambsquarters plant response rating [2, 15]: 0
pest or weed control at 31 g/ha [2, 16]: 0%
pest or weed control at 62 g/ha [2, 17]: 0%
pest or weed control at 31 g/ha [2, 18]: 0%
pest or weed control at 62 g/ha [2, 19]: 0%
Lambsquarters plant response rating [2, 13]: 0
Lambsquarters plant response rating [2, 14]: 0
Foxtail, Giant plant response rating [3, 12]: 95
Foxtail, Giant plant response rating [3, 13]: 0
Foxtail, Giant plant response rating [3, 14]: 100
pest or weed control at 16 g/ha ([3]; Setaria faberi, post-emergence, Postemergence, 16 g ai/ha, scale 0 to 100, read-out: Plant response rating, Foxtail, Giant): 100%
pest or weed control at 31 g/ha ([3]; Setaria faberi, post-emergence, Postemergence, scale 0 to 100, read-out: Plant response rating, Foxtail, Giant): 100%
pest or weed control at 62 g/ha ([3]; Setaria faberi, post-emergence, Postemergence, scale 0 to 100, 0 no effect, read-out: Plant response rating, Foxtail, Giant): 100%
pest or weed control at 31 g/ha ([3]; Setaria faberi, pre-emergence, Preemergence, scale 0 to 100 (0 no effect, 100 complete control), read-out: Plant response rating, Foxtail, Giant): 100%
pest or weed control at 62 g/ha ([3]; Setaria faberi, pre-emergence, Preemergence, 0 to 100 scale, 0 no effect, read-out: Plant response rating, Foxtail, Giant): 100%
Velvetleaf plant response rating [4, 12]: 0
Velvetleaf plant response rating [4, 15]: 0
pest or weed control at 31 g/ha [4, 16]: 0%
pest or weed control at 62 g/ha [4, 17]: 0%
pest or weed control at 31 g/ha [4, 18]: 0%
pest or weed control at 62 g/ha [4, 19]: 0%
Velvetleaf plant response rating [4, 13]: 0
Velvetleaf plant response rating [4, 14]: 0
Wheat plant response rating [5, 12]: 35
Wheat plant response rating [5, 15]: 85
Wheat plant response rating [5, 13]: 0
Wheat plant response rating [5, 14]: 20
plant injury at 31 g/ha [5, 16]: 95%
plant injury at 62 g/ha [5, 17]: 98%
plant injury at 31 g/ha [5, 18]: 60%
plant injury at 62 g/ha [5, 19]: 95%
Corn plant response rating (corn (Zea mays); [12]): 100
Corn plant response rating (corn (Zea mays); [13]): 20
Corn plant response rating (corn (Zea mays); [14]): 85
Corn plant response rating (crop injury, 0 = no effect, 100 = complete kill) at 16 g/ha (corn (Zea mays); Zea mays, post-emergence, Postemergence, 16 g ai/ha, scale 0 to 100): 100%
Corn plant response rating (crop injury, 0 = no effect, 100 = complete kill) at 31 g/ha (corn (Zea mays); Zea mays, post-emergence, Postemergence, scale 0 to 100): 100%
Corn plant response rating (crop injury, 0 = no effect, 100 = complete kill) at 62 g/ha (corn (Zea mays); Zea mays, post-emergence, Postemergence, scale 0 to 100, 0 no effect): 100%
Corn plant response rating (crop injury, 0 = no effect, 100 = complete kill) at 31 g/ha (corn (Zea mays); Zea mays, pre-emergence, Preemergence, scale 0 to 100 (0 no effect, 100 complete control)): 98%
Corn plant response rating (crop injury, 0 = no effect, 100 = complete kill) at 62 g/ha (corn (Zea mays); Zea mays, pre-emergence, Preemergence, 0 to 100 scale, 0 no effect): 100%
Nutsedge, Yellow plant response rating [6, 12]: 0
Nutsedge, Yellow plant response rating [6, 15]: 0
pest or weed control at 31 g/ha [6, 16]: 0%
pest or weed control at 62 g/ha [6, 17]: 0%
pest or weed control at 31 g/ha [6, 18]: 0%
pest or weed control at 62 g/ha [6, 19]: 100%
Nutsedge, Yellow plant response rating [6, 13]: 0
Nutsedge, Yellow plant response rating [6, 14]: 0
Cocklebur plant response rating [7, 12]: 0
Cocklebur plant response rating [7, 13]: 0
Cocklebur plant response rating [7, 14]: 0
pest or weed control at 16 g/ha ([7]; Xanthium strumarium, post-emergence, Postemergence, 16 g ai/ha, scale 0 to 100, read-out: Plant response rating, Cocklebur): 0%
pest or weed control at 31 g/ha ([7]; Xanthium strumarium, post-emergence, Postemergence, scale 0 to 100, read-out: Plant response rating, Cocklebur): 0%
pest or weed control at 62 g/ha ([7]; Xanthium strumarium, post-emergence, Postemergence, scale 0 to 100, 0 no effect, read-out: Plant response rating, Cocklebur): 0%
pest or weed control at 31 g/ha ([7]; Xanthium strumarium, pre-emergence, Preemergence, scale 0 to 100 (0 no effect, 100 complete control), read-out: Plant response rating, Cocklebur): 0%
pest or weed control at 62 g/ha ([7]; Xanthium strumarium, pre-emergence, Preemergence, 0 to 100 scale, 0 no effect, read-out: Plant response rating, Cocklebur): 0%
Goosegrass plant response rating [8, 12]: 20
Goosegrass plant response rating [8, 15]: 75
pest or weed control at 31 g/ha [8, 16]: 85%
pest or weed control at 62 g/ha [8, 17]: 98%
pest or weed control at 31 g/ha [8, 18]: 100%
pest or weed control at 62 g/ha [8, 19]: 100%
Goosegrass plant response rating [8, 13]: 0
Goosegrass plant response rating [8, 14]: 20
Russian Thistle plant response rating ([9]; 8 g ai/ha, scale 0 to 100 (0 no effect, 100 complete control)): 0
Plant response rating, Russian Thistle ([9]; 31 g ai/ha, scale 0 to 100 (0 no effect, 100 complete control)): 0
Plant response rating, Russian Thistle ([9]; 62 g ai/ha, 0 to 100 scale, 0 no effect, 100 complete control): 0
Russian Thistle plant response rating ([9]; 16 g ai/ha, scale 0 to 100): 0
Bermudagrass plant response rating [10, 12]: 85
pest or weed control at 16 g/ha ([10]; Cynodon dactylon, post-emergence, Postemergence, 16 g ai/ha, scale 0 to 100, read-out: Plant response rating, Bermudagrass): 95%
pest or weed control at 31 g/ha ([10]; Cynodon dactylon, post-emergence, Postemergence, scale 0 to 100, read-out: Plant response rating, Bermudagrass): 100%
pest or weed control at 62 g/ha ([10]; Cynodon dactylon, post-emergence, Postemergence, scale 0 to 100, 0 no effect, read-out: Plant response rating, Bermudagrass): 100%
pest or weed control at 31 g/ha ([10]; Cynodon dactylon, pre-emergence, Preemergence, scale 0 to 100 (0 no effect, 100 complete control), read-out: Plant response rating, Bermudagrass): 100%
pest or weed control at 62 g/ha ([10]; Cynodon dactylon, pre-emergence, Preemergence, 0 to 100 scale, 0 no effect, read-out: Plant response rating, Bermudagrass): 100%
Bermudagrass plant response rating [10, 13]: 50
Bermudagrass plant response rating ([10]; Preemergence, 16 g ai/ha, scale 0 to 100 (0 no effect, 100 complete control)): 100
Cupgrass, Woolly plant response rating [11, 12]: 80
pest or weed control at 16 g/ha ([11]; Eriochloa villosa, post-emergence, Postemergence, 16 g ai/ha, scale 0 to 100, read-out: Plant response rating, Cupgrass, Woolly): 95%
pest or weed control at 31 g/ha ([11]; Eriochloa villosa, post-emergence, Postemergence, scale 0 to 100, read-out: Plant response rating, Cupgrass, Woolly): 100%
pest or weed control at 62 g/ha ([11]; Eriochloa villosa, post-emergence, Postemergence, scale 0 to 100, 0 no effect, read-out: Plant response rating, Cupgrass, Woolly): 100%
pest or weed control at 31 g/ha ([11]; Eriochloa villosa, pre-emergence, Preemergence, scale 0 to 100 (0 no effect, 100 complete control), read-out: Plant response rating, Cupgrass, Woolly): 98%
pest or weed control at 62 g/ha ([11]; Eriochloa villosa, pre-emergence, Preemergence, 0 to 100 scale, 0 no effect, read-out: Plant response rating, Cupgrass, Woolly): 100%
Cupgrass, Woolly plant response rating [11, 13]: 0
Cupgrass, Woolly plant response rating [11, 14]: 65
Soybean plant response rating (soybean (Glycine max); [12]): 0
Soybean plant response rating (soybean (Glycine max); [15]): 0
plant injury at 31 g/ha (soybean (Glycine max); [16]): 15%
plant injury at 62 g/ha (soybean (Glycine max); [17]): 20%
plant injury at 31 g/ha (soybean (Glycine max); [18]): 0%
plant injury at 62 g/ha (soybean (Glycine max); [19]): 0%
Soybean plant response rating (soybean (Glycine max); [13]): 0
Soybean plant response rating (soybean (Glycine max); [14]): 0
